The results in this text go back to US10844013B2, “Phenyl amino piperidine mTORC inhibitors and uses thereof” (Navitor Pharmaceuticals, Inc., priority 2016, dated 2020).

As usually defined, the IC50 is the concentration at which inhibition is half-maximal. Read a low IC50 as greater potency.

A value given as a limit tells only on which side of the number the result lay.

The subject of assay [1] is pAKT (p-Akt 1/2/3 (Ser473)) in MCF-7 cells. Kind of assay: AlphaLISA Ultra pAKT assay. In kind it is cell-based. To be noted: Homo sapiens, MCF7, 2 hours compound incubation. The method in brief: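 AlphaLISA read-out (2 h acceptor-bead, then 2 h donor-bead incubation) on thawed lysates of MCF-7 cells exposed to compounds for 2 h in 0.5% DMSO. Cells had been plated 20-24 h and given fresh medium 2 h before dosing.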

Assay [2] deals with pS6K1 (p-p70 S6 Kinase (Thr389)) in MCF-7 cells. Kind of assay: AlphaLISA Ultra pS6K1 assay. In kind it is cell-based. To be noted: Homo sapiens, MCF7, 2 h, 2 hours compound incubation. The method in brief: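 MCF-7 cells seeded 20–24 h, medium refreshed 2 h, then treated 2 h with compound (0.5% DMSO final). Lysates probed for Thr389-phosphorylated p70 S6K by AlphaLISA Ultra, 2 h acceptor then 2 h donor bead incubation, read on a multimode reader.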

Consider `Cc1cc(C)c(C(=O)N2CC(=O)N(c3ccc(F)c(F)c3)[C@H](CO)C2)c(C)c1NC1CCN(c2ccccc2C#N)CC1` [I-136, 2-[4-({3-[(3S)-4-(3,4-difluoro-phenyl)-3-(hydroxy-methyl)-5-oxopiperazine-1-carbonyl]-2,4,6-trimethyl-phenyl}amino)piperidin-1-yl]benzonitrile], for which the IC50 in assay [1] is over 10 µM; in assay [2] it was 0.01 to 1 µM.

In the case of `Cc1cc(C)c(C(=O)N2CCN(c3ccccc3)[C@H](CN)C2)c(C)c1NC1CCN(c2ccccc2C#N)CC1` [I-137, 2-[4-({3-[(3R)-3-(Aminomethyl)-4-phenylpiperazine-1-carbonyl]-2,4,6-trimethylphenyl}amino)piperidin-1-yl]benzonitrile], the IC50 was over 10 µM in assay [1] and 0.01 to 1 µM in assay [2].

On to `Cc1cc(C)c(C(=O)N2CCN(c3ccccc3)C(C(N)=O)C2)c(C)c1NC1CCN(c2ccccc2C#N)CC1` (centres unmarked) [I-139, 4-(3-{[1-(2-cyanophenyl)piperidin-4-yl]amino}-2,4,6-trimethyl-benzoyl)-1-phenyl-piperazine-2-carboxamide], for which the IC50 is over 10 µM in assay [1] and 0.01 to 1 µM in assay [2].

In the case of `Cc1cc(C)c(C(=O)N2CCN(c3cccnn3)[C@H](CO)C2)c(C)c1NC1CCN(c2ccccc2C#N)CC1` [I-140, 2-[4-({3-[(3S)-3-(hydroxy-methyl)-4-(pyridazin-3-yl)piperazine-1-carbonyl]-2,4,6-trimethyl-phenyl}amino)piperidin-1-yl] benzonitrile], the IC50 in assay [1] was over 10 µM; in assay [2], 0.01 to 1 µM.

Take `Cc1cc(C)c(C(=O)N2CCN(c3ccccc3)C(C(N)=O)C2)c(C)c1NC1CCN(c2ccc(F)cc2C#N)CC1` (centres unmarked) [I-142, 4-(3-{[1-(2-cyano-4-fluorophenyl)piperidin-4-yl]amino}-2,4,6-trimethyl-benzoyl)-1-phenyl-piperazine-2-carboxamide]: the IC50 in assay [1] was over 10 µM; in assay [2], 0.01 to 1 µM.

Take `Cc1cc(C)c(C(=O)N2CCN(c3ccccn3)C(=O)C2)c(C)c1NC1CCN(c2ccc(F)cc2C#N)CC1` [I-143, 5-fluoro-2-[4-({2,4,6-trimethyl-3-[3-oxo-4-(pyridin-2-yl)piperazine-1-carbonyl]phenyl}amino)piperidin-1-yl] benzonitrile]: the values for the IC50 in assay [1] and in assay [2] were over 10 µM and 0.01 to 1 µM, respectively.

`Cc1cc(C)c(C(=O)N2CCN(c3ccc(F)cc3)C(C(N)=O)C2)c(C)c1NC1CCN(c2ccc(F)cc2C#N)CC1` (centres unmarked) [I-144, 4-(3-{[1-(2-cyano-4-fluorophenyl)piperidin-4-yl]amino}-2,4,6-trimethyl-benzoyl)-1-(4-fluorophenyl) piperazine-2-carboxamide]: the results for the IC50 in assay [1] and in assay [2] were over 10 µM and 0.01 to 1 µM, respectively.

On to `Cc1cc(C)c(C(=O)N2CCN(c3ccccc3)[C@H](CO)C2)c(C)c1NC1CCN(c2ccc(F)cn2)CC1` [I-145, [(2S)-4-(3-{[1-(5-fluoropyridin-2-yl)piperidin-4-yl]amino}-2,4,6-trimethyl-benzoyl)-1-phenyl-piperazin-2-yl]MeOH], for which the IC50 in assay [1] is over 10 µM; in assay [2], 0.01 to 1 µM.

Regarding `Cc1cc(C)c(C(=O)N2CCN(c3ccc(F)cn3)[C@H](CO)C2)c(C)c1NC1CCN(c2ccc(F)cn2)CC1` [I-146, [(3S)-4-(5-Fluoro-2-pyridyl)-3-(hydroxymethyl)piperazin-1-yl]-[3-[[1-(5-fluoro-2-pyridyl)-4-piperidyl]amino]-2,4,6-trimethyl-phenyl]methanone], the IC50 in assay [1] and in assay [2] was 0.01 to 1 µM each time.

On to `Cc1cc(C)c(C(=O)N2CCN(c3ccccn3)[C@H](CO)C2)c(C)c1NC1CCN(c2ccc(F)cn2)CC1` [I-147, [(2S)-4-(3-{[1-(5-Fluoropyridin-2-yl)piperidin-4-yl]amino}-2,4,6-trimethylbenzoyl)-1-(pyridin-2-yl)piperazin-2-yl]methanol], for which the results for the IC50 in assay [1] and in assay [2] were over 10 µM and 0.01 to 1 µM, respectively.

Turning to `Cc1cc(C)c(C(=O)N2CCN(c3ccc(F)cn3)[C@H](CO)C2)c(C)c1NC1CCN(c2cnccn2)CC1` [I-148, [(3S)-4-(5-Fluoro-2-pyridyl)-3-(hydroxymethyl)piperazin-1-yl]-[2,4,6-trimethyl-3-[(1-pyrazin-2-yl-4-piperidyl)amino]phenyl]methanone], the values for the IC50 in assay [1] and in assay [2] were over 10 µM and 0.01 to 1 µM, respectively.

For the molecule `Cc1cc(C)c(C(=O)N2CCN(c3ccccn3)[C@H](CO)C2)c(C)c1NC1CCN(c2cnccn2)CC1` [I-149, [(2S)-1-(pyridin-2-yl)-4-(2,4,6-trimethyl-3-{[1-(pyrazin-2-yl)piperidin-4-yl]amino}benzoyl)piperazin-2-yl]MeOH], the IC50 was over 10 µM in assay [1] and 0.01 to 1 µM in assay [2].

For the molecule `Cc1cc(C)c(C(=O)N2CCN(c3ccccc3)[C@H](C(N)=O)C2)c(C)c1NC1CCN(c2cnccn2)CC1` [I-150, (2S)-1-phenyl-4-(2,4,6-trimethyl-3-{[1-(pyrazin-2-yl)piperidin-4-yl]amino}benzoyl) piperazine-2-carboxamide], the IC50 in assay [1] was over 10 µM; in assay [2] it was 0.01 to 1 µM.

For `Cc1cc(C)c(C(=O)N2CCN(c3ccc(F)cn3)[C@H](CO)C2)c(C)c1NC1CCN(c2ncccn2)CC1` [I-151, [(2S)-1-(5-Fluoropyridin-2-yl)-4-(2,4,6-trimethyl-3-{[1-(pyrimidin-2-yl)piperidin-4-yl]amino}benzoyl)piperazin-2-yl]methanol], the IC50 in assay [1] was over 10 µM; in assay [2] it was 0.01 to 1 µM.

In the case of `Cc1cc(C)c(C(=O)N2CCN(c3ccccc3)[C@@H](C(N)=O)C2)c(C)c1NC1CCN(c2cnccn2)CC1` [I-152, (2R)-1-phenyl-4-(2,4,6-trimethyl-3-{[1-(pyrazin-2-yl)piperidin-4-yl]amino}benzoyl) piperazine-2-carboxamide], the IC50 in assay [1] and in assay [2] was over 10 µM throughout.

On to `Cc1nc(C)c(C(=O)N2CCN(c3ccccc3)[C@H](CO)C2)c(C)c1NC1CCN(c2c(F)cccc2C#N)CC1` [I-153, 3-fluoro-2-[4-({5-[(3S)-3-(hydroxy-methyl)-4-phenyl-piperazine-1-carbonyl]-2,4,6-trimethyl-pyridin-3-yl}amino)piperidin-1-yl] benzonitrile], for which the results for the IC50 in assay [1] and in assay [2] were over 10 µM and 0.01 to 1 µM, respectively.

On to `Cc1nc(C)c(C(=O)N2CCN(c3ccccc3)[C@H](CO)C2)c(C)c1NC1CCN(c2ccc(F)cc2C#N)CC1` [I-154, 5-fluoro-2-[4-({5-[(3S)-3-(hydroxy-methyl)-4-phenyl-piperazine-1-carbonyl]-2,4,6-trimethyl-pyridin-3-yl}amino)piperidin-1-yl] benzonitrile], for which the values for the IC50 in assay [1] and in assay [2] were over 10 µM and 1 to 3 µM, respectively.

Consider `Cc1nc(C)c(C(=O)N2CCN(c3ccccc3)[C@H](CO)C2)c(C)c1NC1CCN(c2ccccn2)CC1` [I-155, [(2S)-1-phenyl-4-(2,4,6-trimethyl-5-{[1-(pyridin-2-yl)piperidin-4-yl]amino}pyridine-3-carbonyl)piperazin-2-yl]MeOH], for which the IC50 is over 10 µM in assay [1] and 1 to 3 µM in assay [2].

With `Cc1cc(C)c(C(=O)N2CCN(c3ccccn3)[C@H](CO)C2)c(C)c1NC1CCN(c2ccccn2)CC1` [I-156, [(2S)-1-(pyridin-2-yl)-4-(2,4,6-trimethyl-3-{[1-(pyridin-2-yl)piperidin-4-yl]amino}benzoyl)piperazin-2-yl]MeOH], the IC50 in assay [1] is over 10 µM; in assay [2], 0.01 to 1 µM.

For the molecule `Cc1cc(C)c(C(=O)N2CCN(c3cccnn3)[C@H](CO)C2)c(C)c1NC1CCN(c2ccccn2)CC1` [I-157, [(2S)-1-(pyridazin-3-yl)-4-(2,4,6-trimethyl-3-{[1-(pyridin-2-yl)piperidin-4-yl]amino}benzoyl)piperazin-2-yl]MeOH], the results for the IC50 in assay [1] and in assay [2] were over 10 µM and 0.01 to 1 µM, respectively.

On to `Cc1cc(C)c(C(=O)N2CCN(c3ccccc3)[C@H](CO)C2)c(C)c1NC1CCN(c2cccnn2)CC1` [I-158, [(2S)-1-phenyl-4-(2,4,6-trimethyl-3-{[1-(pyridazin-3-yl)piperidin-4-yl]amino}benzoyl)piperazin-2-yl]MeOH], for which the IC50 in assay [1] was over 10 µM; in assay [2], 0.01 to 1 µM.

In the case of `Cc1cc(C)c(C(=O)N2CCN(c3cccnn3)[C@H](CO)C2)c(C)c1NC1CCN(c2cccnn2)CC1` [I-160, [(2S)-1-(pyridazin-3-yl)-4-(2,4,6-trimethyl-3-{[1-(pyridazin-3-yl)piperidin-4-yl]amino}benzoyl)piperazin-2-yl]MeOH], the concentration for half-maximal inhibition (IC50) in assay [1] is over 10 µM; in assay [2], 1 to 3 µM.

For the molecule `Cc1cc(C)c(C(=O)N2CCN(c3ccc(F)cn3)[C@H](CO)C2)c(C)c1NC1CCN(c2cccnn2)CC1` [I-161, [(2S)-1-(5-fluoropyridin-2-yl)-4-(2,4,6-trimethyl-3-{[1-(pyridazin-3-yl)piperidin-4-yl]amino}benzoyl)piperazin-2-yl]MeOH], the half-inhibitory concentration (IC50) is over 10 µM in assay [1] and 0.01 to 1 µM in assay [2].

Consider `Cc1cc(C)c(C(=O)N2CCN(c3ccc(F)cc3)C(C(N)=O)C2)c(C)c1NC1CCN(c2cccnn2)CC1` (centres unmarked) [I-162, 1-(4-fluorophenyl)-4-(2,4,6-trimethyl-3-{[1-(pyridazin-3-yl)piperidin-4-yl]amino}benzoyl) piperazine-2-carboxamide], for which the IC50 in assay [1] is over 10 µM; in assay [2] it was 0.01 to 1 µM.

As for `Cc1cc(C)c(C(=O)N2CCN(c3ccccc3)[C@H](C(N)=O)C2)c(C)c1NC1CCN(c2cccnn2)CC1` [I-164, (2S)-1-Phenyl-4-(2,4,6-trimethyl-3-{[1-(pyridazin-3-yl)piperidin-4-yl]amino}benzoyl)piperazine-2-carboxamide], the figures for the IC50 in assay [1] and in assay [2] were over 10 µM and 0.01 to 1 µM, respectively.
